From PubChem BioAssay AID1645862 (Buhrlage Lab, Dana-Farber Cancer Institute and Novartis …, 2021)
Calls of active or inactive are those of the source. How the calls were made is not given here.

The molecules below were run against Ubiquitin carboxyl-terminal hydrolase 8 (Homo sapiens) (UniProt P40818) (assay: Ubiquitin-specific protease 8 inhibitors, concentration-effect, biochemical, validation of initial actives (AID 1645862;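 further: potency reflects inhibition of USP8 cleavage of a ubiquitin rhodamine substrate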)). Settings: recombinant USP8 deubiquitinase activity assay.
Ubiquitin carboxyl-terminal hydrolase 8 (Homo sapiens), sequence (P40818 whole entry, looked up): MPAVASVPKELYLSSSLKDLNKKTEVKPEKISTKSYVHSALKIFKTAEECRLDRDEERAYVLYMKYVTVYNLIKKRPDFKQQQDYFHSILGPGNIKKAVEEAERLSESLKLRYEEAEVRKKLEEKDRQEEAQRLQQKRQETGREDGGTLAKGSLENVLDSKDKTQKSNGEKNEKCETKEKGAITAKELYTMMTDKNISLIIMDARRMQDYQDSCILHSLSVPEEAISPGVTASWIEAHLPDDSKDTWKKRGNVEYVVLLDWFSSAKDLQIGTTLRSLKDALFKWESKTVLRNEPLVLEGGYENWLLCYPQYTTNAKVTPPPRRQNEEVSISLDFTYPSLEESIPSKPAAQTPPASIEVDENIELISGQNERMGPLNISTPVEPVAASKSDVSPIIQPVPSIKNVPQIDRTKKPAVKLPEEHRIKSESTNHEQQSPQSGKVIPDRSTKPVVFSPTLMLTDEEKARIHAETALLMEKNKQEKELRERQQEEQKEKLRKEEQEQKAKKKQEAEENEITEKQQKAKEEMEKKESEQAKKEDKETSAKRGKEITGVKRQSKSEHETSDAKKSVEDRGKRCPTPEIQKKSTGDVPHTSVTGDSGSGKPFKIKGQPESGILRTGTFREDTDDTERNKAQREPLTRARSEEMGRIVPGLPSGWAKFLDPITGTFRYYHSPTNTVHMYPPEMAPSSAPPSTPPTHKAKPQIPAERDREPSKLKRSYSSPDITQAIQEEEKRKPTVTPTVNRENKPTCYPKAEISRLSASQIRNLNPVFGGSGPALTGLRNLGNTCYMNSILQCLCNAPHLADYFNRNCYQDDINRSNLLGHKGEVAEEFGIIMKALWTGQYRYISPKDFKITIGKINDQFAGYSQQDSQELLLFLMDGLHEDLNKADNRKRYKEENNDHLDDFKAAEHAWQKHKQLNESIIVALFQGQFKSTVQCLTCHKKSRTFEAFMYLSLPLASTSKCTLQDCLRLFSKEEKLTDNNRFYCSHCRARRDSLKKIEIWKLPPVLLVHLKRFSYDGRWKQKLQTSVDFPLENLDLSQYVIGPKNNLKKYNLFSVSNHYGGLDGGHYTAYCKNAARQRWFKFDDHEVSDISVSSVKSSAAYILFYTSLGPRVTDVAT

Q: Which IC50 does the source give for O=C(Nc1nnc(-c2cccc([N+](=O)[O-])c2)o1)C1CCN(S(=O)(=O)c2ccc3c(c2)CCC3)CC1 here?
A: > 40 µM (inactive)

Q: Cn1c(C(=O)NCc2ccccn2)cc2c(=O)[nH]c3ccccc3c21 was tested. Which IC50 did it give?
A: > 40 µM (inactive)

Q: Which IC50 does the source give for CC(=O)O[C@@H](C/C=C(\C)C(=O)O)[C@@H](C)[C@H]1C[C@H](OC(C)=O)[C@@]2(C)C3=CC[C@H]4C(C)(C)[C@H](O)CC[C@]4(C)C3=CC[C@]12C here?
A: > 40 µM (inactive)

Q: For COc1cc(NS(=O)(=O)c2ccc(NC(=O)COc3ccc(C)cc3Br)cc2)nc(OC)n1, which IC50 is on record?
A: > 40 µM (inactive)

Q: Which IC50 does the source give for O=C(CSc1nc2c(cnn2-c2ccccc2)c(=O)[nH]1)Nc1ccc(Cl)cc1F here?
A: 32.1 µM

Q: COc1cccc(C(=O)Nc2nc(-c3nnn(-c4ccc(C)c(F)c4)c3C)ns2)c1 was tested. Which IC50 did it give?
A: > 40 µM (inactive)

Q: With O=C(Nc1cccc(-c2nc3cnccc3o2)c1)c1ccc(Br)o1 as the molecule, how does the IC50 read?
A: > 40 µM (inactive)

Q: O=C1CC(c2cc3c(cc2Br)OCO3)c2cc3c(cc2N1)OCCO3 (stereo not drawn) was tested. Which IC50 did it give?
A: > 40 µM (inactive)

Q: How did the IC50 turn out when O=C(COc1ccc(Cl)cc1)Nc1noc(-c2cccs2)n1 was run?
A: > 40 µM (inactive)

Q: Cc1cccc(NC(=O)CNC(=O)c2ccc(-c3noc(C4CCCC4)n3)cc2)c1C was tested. Which IC50 did it give?
A: > 40 µM (inactive)

Q: With CC(C)Cc1ccc(-c2cc(-c3ccc(C(F)(F)F)cc3)c(C#N)c(=O)[nH]2)cc1 as the molecule, how does the IC50 read?
A: > 40 µM (inactive)

Q: Which IC50 does the source give for Cc1ccc(C(=O)O)cc1NC(=O)C(Sc1cccc(NC(=O)c2cccc(Cl)c2)c1)c1ccccc1 (stereo not drawn) here?
A: > 40 µM (inactive)

Q: For CC[C@@H](C(=O)[C@@H](C)[C@@H](O)[C@H](C)CCc1ccc(C)c(O)c1C(=O)O)[C@@H]1O[C@](CC)([C@H]2CC[C@](O)(CC)[C@H](C)O2)C[C@@H]1C, which IC50 is on record?
A: > 40 µM (inactive)

Q: Cc1cc(Nc2ccc(C(=O)NCc3ccco3)cc2)n2nc(-c3cccnc3)nc2n1 was tested. Which IC50 did it give?
A: > 40 µM (inactive)

Q: CCN(CC)C(=O)c1sc(NC(=O)c2cc(-c3ccccc3Cl)nc3ccccc23)c(C(N)=O)c1C was tested. Which IC50 did it give?
A: > 40 µM (inactive)

Q: CSc1ccc(C(=O)Nc2nc(-c3ccncc3)cs2)cc1 was tested. Which IC50 did it give?
A: > 40 µM (inactive)

Q: O=C(Nc1c2c(nn1-c1ccc([N+](=O)[O-])cc1)CSC2)c1c(F)cccc1F was tested. Which IC50 did it give?
A: > 40 µM (inactive)

Q: With Oc1cccc2c(-c3ccc(O)c4c(O)cccc34)ccc(O)c12 as the molecule, how does the IC50 read?
A: > 40 µM (inactive)

Q: Which IC50 does the source give for CCC(=O)N1c2ccccc2NC2=C(C(=O)CC(c3ccccc3OCc3ccccc3)C2)C1c1ccccc1 (stereo not drawn) here?
A: > 40 µM (inactive)

Q: Cc1ccc(C(=O)c2cn(CC(=O)Nc3ccccc3)c3ccc(C)cc3c2=O)cc1 was tested. Which IC50 did it give?
A: > 40 µM (inactive)

Q: How did the IC50 turn out when COc1ccc(N2CC(c3nnc(NC(=O)CCc4ccccc4)s3)CC2=O)cc1 (stereo not drawn) was run?
A: > 40 µM (inactive)

Q: Which IC50 does the source give for CCOc1ncccc1C(=O)Nc1ccnn1Cc1ccccc1 here?
A: > 40 µM (inactive)

Q: With C=C/C(=C/C(=O)C[C@H](C)C[C@@H](C)CC[C@H](O)[C@H](C)C(=O)CC(O)[C@H](C)[C@@H](C)OC(=O)C[C@@H](O)C1=C(C)C(=O)OC1=O)CC (stereo partly drawn) as the molecule, how does the IC50 read?
A: 2.6 µM

Q: Which IC50 does the source give for CC(=O)[C@H]1c2c(c(O)c3c(O)cccc3c2-c2c3c(c(O)c4c(O)cccc24)C(=O)C[C@](C)(O)[C@H]3C(C)=O)C(=O)C[C@]1(C)O here?
A: 24.5 µM

Q: How did the IC50 turn out when COCCCN1CCS(=O)(=O)c2c(Cl)c(F)nc(Oc3ccccc3F)c21 was run?
A: > 40 µM (inactive)

Q: Cc1ccc2[nH]cc(S(=O)(=O)c3cc(F)cc(F)c3)c(=O)c2c1 was tested. Which IC50 did it give?
A: > 40 µM (inactive)

Q: For Cc1cc(OCC(=O)Nc2ccc3c(c2)NC(=O)CO3)ccc1Cl, which IC50 is on record?
A: > 40 µM (inactive)

Q: With O=C1CSC(c2ccc(F)cc2)c2c(n(C3CCCCCC3)[nH]c2=O)N1 (stereo not drawn) as the molecule, how does the IC50 read?
A: 31.9 µM

Q: With Cc1ccc(-c2cc(=O)n(CC(=O)Nc3ccc(C(C)C)cc3)cn2)cc1 as the molecule, how does the IC50 read?
A: > 40 µM (inactive)

Q: Which IC50 does the source give for CS(=O)(=O)c1ccc2nc(N(Cc3cccnc3)C(=O)c3ccc4ccccc4c3)sc2c1 here?
A: > 40 µM (inactive)

Q: For COCCCN1CCS(=O)(=O)c2c(Cl)c(F)nc(Oc3ccc(C#N)cc3)c21, which IC50 is on record?
A: > 40 µM (inactive)

Q: Which IC50 does the source give for COc1ccccc1N(CC(=O)N1c2ccccc2CC1C)S(=O)(=O)c1ccc(F)cc1 (stereo not drawn) here?
A: > 40 µM (inactive)

Q: Which IC50 does the source give for COc1cc(O)c2c(O)c3c(cc2c1)C[C@@]1(O)CC(=O)C(C(N)=O)=C(O)[C@@]1(O)C3=O here?
A: 3.61 µM

Q: With COc1cccc(N2CCCN(C(=O)c3ccc4nc(C)[nH]c4c3)CC2)c1 as the molecule, how does the IC50 read?
A: > 40 µM (inactive)

Q: How did the IC50 turn out when Cc1cc(O)c2c3c(c(O)cc2c1)C(=O)c1c(O)cccc1C3=O was run?
A: 1.46 µM

Q: Which IC50 does the source give for Fc1cc(F)c2[nH]cc(-c3nnnn3-c3ccc4ccccc4c3)c2c1 here?
A: > 40 µM (inactive)

Q: CS(=O)(=O)c1cccc(C(=O)Nc2sc3c(c2C(N)=O)CCCC3)c1 was tested. Which IC50 did it give?
A: > 40 µM (inactive)

Q: COCCCNC(=O)c1ccc(Cn2c(=O)c3ccccc3n(CC(=O)Nc3ccc(OC)cc3)c2=O)cc1 was tested. Which IC50 did it give?
A: > 40 µM (inactive)

Q: With Nc1c(-c2nc(-c3ccccc3Cl)no2)nnn1-c1ccc(Cl)cc1 as the molecule, how does the IC50 read?
A: 4.79 µM

Q: Which IC50 does the source give for COc1cc(NC(=O)Cc2ccccc2)ccc1NC(=O)c1cc2ccccc2o1 here?
A: > 40 µM (inactive)

Q: CC(C)=CCc1c2c(c3occ(-c4ccc(O)c(O)c4)c(=O)c3c1O)C=CC(C)(C)O2 was tested. Which IC50 did it give?
A: 16 µM

Q: How did the IC50 turn out when O=C(c1ccc2cc[nH]c2c1)N1CCC(Nc2cccnc2)C1 (stereo not drawn) was run?
A: > 40 µM (inactive)

Q: CCc1cccc(CC)c1NC(=O)COC(=O)c1cc2cccc(OC)c2oc1=O was tested. Which IC50 did it give?
A: > 40 µM (inactive)
